The results in this text go back to patent US12303484B2, “Method of treating cancer” (University of Louisiana at Lafayette, priority 2019, dated 2025).

Like-named read-outs stand apart in the source and are kept apart here.

The IC50 is the concentration at which inhibition is half-maximal. Lower therefore signals greater potency in that assay.

In one series the test system is H522 cell lines (NSCLC). Briefly: Ruthenium complex screening against cancer subtypes (FIG. 3). The format is cell-based. An excerpt:
Still, preliminary tests show promise that dosage of RuCl3(DMSO)(dmPyz)2 is effective against NSCLC subtypes. FIG. 3 is a table showing the results of Ruthenium complex screening conducted to test the efficacy of the current Ruthenium (III) complexes to various cancer subtypes.

Series [1] concerns NCI-H522 Lung Cancer cell line. The series is described as follows: MTT cell proliferation / cytotoxicity assay, NCI-H522. As to conditions: for EC50: MTT, read-out: Effective Dose 50 (ED50); for ED50 (in words): NCI-H522, MTT assay. The format is cell-based, human. Here is the method: (§1) Examples measuring the effectiveness of mer-[RuCl3(DMSO)(dmpyz)2 in treating two lines of cancer cells is presented herein. Lung Cancer Cell lines NCI-H522 and NCI-H23 from ATCC were grown in RPMI (growth medium) supplemented with 10% heat inactivated fetal bovine serum (FBS) along with penicillin and streptomycin. All cells were grown at humidified, carbon dioxide enriched atmosphere (+37° C. with 5% CO2).
(§2) NCI-H522 cells were seeded at 50,000 cells/well and NCI-H23 at 30,000cells/well in a 96-well microtiter plate in RPMI with 10% FBS. Cells were incubated at humidified atmosphere (+37° C. with 5% CO2) for overnight attachment. A mer-[RuCl3(DMSO)(dmpyz)2 drug along with the positive control drug Doxorubicin were used in following concentrations (100 μM, 33 μM, 11 μM, 3.7 μM, 1.2 μM, 0.4 μM per well of cells) and added in triplicates and incubated for 3 time durations (24 hrs,48 hrs,72 hrs) at humidified atmosphere (37° C. with 5% CO2). Thereafter the cells were treated with 10 μl (final concentration 0.5 mg/ml) 3-(4,5-dimethylthiazol-2-yl)- 2,5-diphenyltetrazolium bromide (MTT, see Cell Proliferation Kit I MTT Roche: Cat No: 11465007001). The microplate were incubated for 4 hours in a humidified atmosphere (+37° C., 5% CO2). Four hours later 100 μl of solubilization solution (from Roche MTT kit) was added into each well. The plate were allowed to stand overnight in the incubator in a humidified atmosphere (+37° C., 5% CO2). The complete solubilization of the purple formazan crystals was check for and measure the absorbance of the samples using a microplate (ELISA) reader. The wavelength was measure for absorbance of the formazan product at 562 nm the reference wavelength used was 630 nm. Percentage viable cells were calculated as below. % viable cells=(ab of sample-ab of blank/ab control-ab blank) X100 % cytotoxicity or % inhibition=100−% viable cells
(§3) The Effective Dose 50 (ED50) was extrapolated from the dose-response graph. The drug concentration that reduced the viability of the cells by 50% (ED50) was determined by plotting data points over a concentration range and calculating values using PRISM program.
(§4) The MTT assay is used to measure cellular metabolic activity as an indicator of cell viability, proliferation and cytotoxicity. This colorimetric assay is based on the reduction of a yellow tetrazolium salt (3-(4,5-dimethylthiazol-2-yl)-2,5-diphenyltetrazolium bromide or MTT) to purple formazan crystals by metabolically active cells. Viable cells produce enzymes that convert yellow MTT to insoluble purple formazan. The more viable cells present in a sample, the more intense the purple color. This test is widely used in the in vitro evaluation of cytotoxic potency of drugs. In the present study we applied the MTT assay to evaluate the potency of mer-[RuC3(DMSO)(dmpyz)2 anti-cancer drug in various human lung cancer cell lines.
For orientation: Tetrazolium dyes change colour on reduction, which living cells bring about.

Series [2] concerns NCI-H23 Lung Cancer cell line. Briefly: MTT cell proliferation / cytotoxicity assay, NCI-H23. As to conditions: for EC50: MTT, read-out: Effective Dose 50 (ED50); for ED50 (in words): NCI-H23, MTT assay. The format is cell-based, human. Here is the method:
as §1, §2, §3, §4

Regarding mer-[RuCl3(DMSO)(dmpyz)2, the IC50 in the series on H522 cell lines (NSCLC) (suggested from 97% inhibition at 10 micromole) was < 10 µM. In addition, the “inhibition of NSCLC” value in the series with H522 cell lines (NSCLC) (treatment of 10 micromole (M) purified, preliminary tests) worked out at 97%. In addition, the cytotoxic response result is “highly toxic” in series [1] (H522 cell lines, 33 μM concentration) and “highly toxic” in series [2] (H23 cell lines, 100 μM concentration). Also, the EC50 worked out at 82.1 µM in series [1] (NCI-H522, 24 hrs treatment); 11.7 µM in series [1] (NCI-H522, 48 hrs treatment); 12.5 µM in series [1] (NCI-H522, 72 hrs treatment); 81.1 µM in series [2] (NCI-H23, 24 hrs treatment); 77.4 µM in series [2] (NCI-H23, 48 hrs treatment); 59.4 µM in series [2] (NCI-H23, 72 hrs treatment). The “ED50 (in words)” value in series [1] and in series [2] was “modest micromolar” each time. For the same compound, the cell viability entry in series [1] (NCI-H522, drug concentration 33 μM or more) is given as “reduces to zero”; in series [2] (NCI-H23, drug concentration 100 μM), “reduces to zero”.

Regarding `COc1cccc2c1C(=O)c1c(O)c3c(c(O)c1C2=O)C[C@@](O)(C(=O)CO)C[C@@H]3O[C@H]1C[C@H](N)[C@H](O)[C@H](C)O1` [doxorubicin, Doxorubicin, reference compound], the “ED50 (in words)” value in series [1] and in series [2] was “comparable to published data” in each case.
